# Assay results from ChEMBL document CHEMBL1201862, “PubChem BioAssay data set” (2004).
#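 Dose response: 5 concentrations. Exposure: 48 h. Format: 96-well plates. Endpoint: linear interpolation; highest concentration if not reached. Abbreviation: GI50, concentration required for 50% inhibition of growth.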 Activity calls are given as the source filed them. Cut-off read from the data, not from the text of the source: active = GI50 up to about 1.1 µM and inactive = higher.
# Legend:
# Test in all cases: NCI tumour cell line growth inhibition, 48 h
# [1] = tested on: SN12C
# [2] = tested on: SK-MEL-28
# [3] = tested on: COLO 205
# [4] = tested on: HCT-116
# [5] = tested on: NCI-H23
# [6] = tested on: CCRF-CEM
# [7] = tested on: OVCAR-5
# [8] = tested on: KM12
# [9] = tested on: OVCAR-3
# [10] = tested on: SF-268
# [11] = tested on: DMS-114
# [12] = tested on: SK-MEL-5
# [13] = tested on: SNB-19
# [14] = tested on: NCI-H460
# [15] = tested on: IGROV-1
# [16] = tested on: A498
# [17] = tested on: RXF 393
# [18] = tested on: XF498
# [19] = tested on: HCT-15
# [20] = tested on: RPMI-8226
# [21] = tested on: Malme-3M
# [22] = tested on: SF-295
# [23] = tested on: HOP-62
# [24] = tested on: HCC 2998
# [25] = tested on: NCI/ADR-RES
# [26] = tested on: KM-20L2
# [27] = tested on: SK-OV-3
# [28] = tested on: SF-539
# [29] = tested on: SW-620
# [30] = tested on: SNB-75
# [31] = tested on: SNB-78
# [32] = tested on: UO-31
# [33] = tested on: DLD-1
# [34] = tested on: HT-29
# [35] = tested on: MCF7
# [36] = tested on: LOX IMVI
# [37] = tested on: NCI-H226
# [38] = tested on: UACC-257
# [39] = tested on: HOP-18
# [40] = tested on: U-251
# [41] = tested on: OVCAR-4
# [42] = tested on: A549
# [43] = tested on: K562
# [44] = tested on: M19-MEL
# [45] = tested on: MOLT-4
# [46] = tested on: EKVX
# [47] = tested on: HL-60
# [48] = tested on: HOP-92
# [49] = tested on: SK-MEL-2
# [50] = tested on: UACC-62
# [51] = tested on: OVCAR-8
# [52] = tested on: NCI-H522
# [53] = tested on: CAKI-1
# [54] = tested on: DMS-273
compound,measurement,setting,value
CN(C)CCNC(=O)c1cccc2nc(-c3ccccc3)oc12,GI50,[1],41.1 µM (inactive)
same,GI50,[2],60.1 µM (inactive)
same,GI50,[3],17.3 µM (inactive)
same,GI50,[4],32.1 µM (inactive)
same,GI50,[5],48.3 µM (inactive)
same,GI50,[6],45.6 µM (inactive)
same,GI50,[7],38.5 µM (inactive)
same,GI50,[8],53.5 µM (inactive)
same,GI50,[9],41.9 µM (inactive)
same,GI50,[10],> 64.6 µM (inactive)
same,GI50,[11],47.1 µM (inactive)
same,GI50,[12],22.3 µM (inactive)
same,GI50,[13],19.7 µM (inactive)
same,GI50,[14],30.4 µM (inactive)
same,GI50,[15],44 µM (inactive)
same,GI50,[16],27.7 µM (inactive)
same,GI50,[17],32.2 µM (inactive)
same,GI50,[18],34.3 µM (inactive)
same,GI50,[19],43.6 µM
same,GI50,[20],34.6 µM (inactive)
same,GI50,[21],23.9 µM (inactive)
same,GI50,[22],31.3 µM (inactive)
same,GI50,[23],> 66.7 µM (inactive)
same,GI50,[24],54.5 µM (inactive)
same,GI50,[25],42.9 µM (inactive)
same,GI50,[26],28.8 µM (inactive)
same,GI50,[27],34.4 µM (inactive)
same,GI50,[28],49.9 µM (inactive)
same,GI50,[29],39.2 µM (inactive)
same,GI50,[30],13.5 µM (inactive)
same,GI50,[31],> 72.6 µM (inactive)
same,GI50,[32],17.4 µM (inactive)
same,GI50,[33],31.9 µM (inactive)
same,GI50,[34],31 µM (inactive)
same,GI50,[35],14.7 µM (inactive)
same,GI50,[36],26.5 µM (inactive)
same,GI50,[37],29.1 µM (inactive)
same,GI50,[38],36.3 µM (inactive)
same,GI50,[39],> 61.2 µM (inactive)
same,GI50,[40],46.9 µM (inactive)
same,GI50,[41],26.5 µM (inactive)
same,GI50,[42],42.6 µM (inactive)
same,GI50,[43],1.94 µM (inactive)
same,GI50,[44],33 µM (inactive)
same,GI50,[45],10.9 µM (inactive)
same,GI50,[46],6.97 µM (inactive)
same,GI50,[47],8.18 µM (inactive)
same,GI50,[48],13 µM (inactive)
same,GI50,[49],> 62.5 µM (inactive)
same,GI50,[50],31.5 µM (inactive)
same,GI50,[51],35.9 µM (inactive)
Cc1ccc(C(=O)Nc2ncn(C3CC(O)C(CO)O3)c(=O)n2)cc1 (configuration not stated),GI50,[1],> 100 µM (inactive)
same,GI50,[2],> 100 µM (inactive)
same,GI50,[3],> 100 µM (inactive)
same,GI50,[4],> 100 µM (inactive)
same,GI50,[5],> 100 µM (inactive)
same,GI50,[6],> 100 µM (inactive)
same,GI50,[7],> 100 µM (inactive)
same,GI50,[8],> 100 µM (inactive)
same,GI50,[9],> 33.3 µM (inactive)
same,GI50,[10],> 100 µM (inactive)
same,GI50,[11],> 100 µM (inactive)
same,GI50,[12],> 100 µM (inactive)
same,GI50,[13],12.2 µM (inactive)
same,GI50,[14],> 100 µM (inactive)
same,GI50,[15],> 100 µM (inactive)
same,GI50,[16],> 100 µM (inactive)
same,GI50,[17],> 100 µM (inactive)
same,GI50,[18],> 100 µM (inactive)
same,GI50,[19],> 100 µM
same,GI50,[20],> 45.9 µM (inactive)
same,GI50,[52],> 100 µM (inactive)
same,GI50,[21],> 100 µM (inactive)
same,GI50,[22],> 100 µM (inactive)
same,GI50,[23],> 100 µM (inactive)
same,GI50,[24],> 100 µM (inactive)
same,GI50,[25],> 100 µM (inactive)
same,GI50,[27],> 100 µM (inactive)
same,GI50,[28],> 100 µM (inactive)
same,GI50,[29],> 100 µM (inactive)
same,GI50,[30],> 52.6 µM (inactive)
same,GI50,[53],> 100 µM (inactive)
same,GI50,[31],> 65.5 µM (inactive)
same,GI50,[54],> 100 µM (inactive)
same,GI50,[32],> 100 µM (inactive)
same,GI50,[33],> 100 µM (inactive)
same,GI50,[34],> 100 µM (inactive)
same,GI50,[35],> 100 µM (inactive)
same,GI50,[36],> 100 µM (inactive)
same,GI50,[37],> 100 µM (inactive)
same,GI50,[38],> 100 µM (inactive)
same,GI50,[39],> 68.2 µM (inactive)
same,GI50,[40],> 100 µM (inactive)
same,GI50,[41],> 100 µM (inactive)
same,GI50,[42],> 100 µM (inactive)
same,GI50,[43],> 100 µM (inactive)
same,GI50,[44],> 100 µM (inactive)
same,GI50,[45],> 29.6 µM (inactive)
same,GI50,[46],> 100 µM (inactive)
same,GI50,[48],> 100 µM (inactive)
same,GI50,[49],> 100 µM (inactive)
same,GI50,[50],> 100 µM (inactive)
same,GI50,[51],> 100 µM (inactive)
CC1(C)CC2(CC(C)(C)N1O)NC(=O)OC2=O,GI50,[1],> 100 µM (inactive)
same,GI50,[2],> 100 µM (inactive)
same,GI50,[3],> 100 µM (inactive)
same,GI50,[4],> 100 µM (inactive)
same,GI50,[5],> 100 µM (inactive)
same,GI50,[6],> 77.4 µM (inactive)
same,GI50,[7],> 100 µM (inactive)
same,GI50,[8],> 100 µM (inactive)
same,GI50,[9],> 100 µM (inactive)
same,GI50,[10],> 100 µM (inactive)
same,GI50,[11],> 100 µM (inactive)
same,GI50,[12],> 100 µM (inactive)
same,GI50,[13],> 100 µM (inactive)
same,GI50,[14],> 31.6 µM (inactive)
same,GI50,[15],> 100 µM (inactive)
same,GI50,[16],> 100 µM (inactive)
same,GI50,[17],> 100 µM (inactive)
same,GI50,[18],> 100 µM (inactive)
same,GI50,[19],> 100 µM
same,GI50,[20],> 100 µM (inactive)
same,GI50,[52],> 100 µM (inactive)
same,GI50,[21],> 100 µM (inactive)
same,GI50,[22],> 100 µM (inactive)
same,GI50,[23],> 100 µM (inactive)
same,GI50,[24],> 100 µM (inactive)
same,GI50,[25],> 100 µM (inactive)
same,GI50,[26],> 100 µM (inactive)
same,GI50,[27],> 100 µM (inactive)
same,GI50,[28],> 100 µM (inactive)
same,GI50,[29],> 100 µM (inactive)
same,GI50,[30],> 67.3 µM (inactive)
same,GI50,[53],> 100 µM (inactive)
same,GI50,[31],> 100 µM (inactive)
same,GI50,[54],> 100 µM (inactive)
same,GI50,[32],> 100 µM (inactive)
same,GI50,[33],> 100 µM (inactive)
same,GI50,[34],> 100 µM (inactive)
same,GI50,[35],> 100 µM (inactive)
same,GI50,[36],> 100 µM (inactive)
same,GI50,[37],> 100 µM (inactive)
same,GI50,[38],> 100 µM (inactive)
same,GI50,[39],> 100 µM (inactive)
same,GI50,[40],> 100 µM (inactive)
same,GI50,[41],> 100 µM (inactive)
same,GI50,[42],> 100 µM (inactive)
same,GI50,[43],> 100 µM (inactive)
same,GI50,[44],> 100 µM (inactive)
same,GI50,[45],> 100 µM (inactive)
same,GI50,[46],> 100 µM (inactive)
same,GI50,[47],> 100 µM (inactive)
same,GI50,[48],> 100 µM (inactive)
same,GI50,[49],> 100 µM (inactive)
same,GI50,[50],> 100 µM (inactive)
same,GI50,[51],> 100 µM (inactive)
